Values quoted from earlier work, collected in PMC4846294 (Bioorganic & medicinal chemistry, 2016).
Marks after values point to notes of the source that are not given here.

Key:
DU-145 (prostate) = details: read-out: GI50 SRB Assay DU-145; cited from earlier work
[1] = test system: purified bovine brain tubulin; details: read-out: Inhibition of Tubulin Polymerization IC50; cited from earlier work
NCI-H460 (lung) = details: read-out: GI50 SRB Assay NCI-H460; cited from earlier work
tubulin = details: inhibitor 5 μM; cited from earlier work
SK-OV-3 (ovarian) = details: read-out: GI50 SRB Assay SK-OV-3; cited from earlier work

Q: For `COc1ccc(/C=C\c2cc(OC)c(OC)c(OC)c2)c(O)c1O` [CA1, combretastatin A-1], which GI50 (DU-145 (prostate)) is on record?
A: 32.6 ± 17.3 nM

Q: What about the IC50 [1] of the same compound?
A: 1900 nM

Q: What about the GI50 (NCI-H460 (lung)) of the same compound?
A: 15.3 ± 15.8 nM

Q: What about the “Inhibition of Colchicine Binding (% Inhibition±SD)” value (tubulin) of the same compound?
A: 99.6±0.7^b %

Q: And the GI50 (SK-OV-3 (ovarian))?
A: 38.4 ± 24.2 nM
